# Assays:
# [1] = target: T1, FLAG-tagged Vanin-1 (AA 22-493, T26I) (Homo sapiens, UniProt O95497, T26I); test: Vanin-1 enzymatic assay; format: biochemical; settings: 0.1 nM Vanin-1, 3 μM D-pantethine, pantothenic acid formation by RapidFire MS; geometric mean if multiple measurements; read-out: VNN-1 IC50
# T1 construct: FLAG-tagged Vanin-1 (AA 22-493, T26I, produced internally); FLAG; made in house
# T1 sequence (O95497 22-493 T26I): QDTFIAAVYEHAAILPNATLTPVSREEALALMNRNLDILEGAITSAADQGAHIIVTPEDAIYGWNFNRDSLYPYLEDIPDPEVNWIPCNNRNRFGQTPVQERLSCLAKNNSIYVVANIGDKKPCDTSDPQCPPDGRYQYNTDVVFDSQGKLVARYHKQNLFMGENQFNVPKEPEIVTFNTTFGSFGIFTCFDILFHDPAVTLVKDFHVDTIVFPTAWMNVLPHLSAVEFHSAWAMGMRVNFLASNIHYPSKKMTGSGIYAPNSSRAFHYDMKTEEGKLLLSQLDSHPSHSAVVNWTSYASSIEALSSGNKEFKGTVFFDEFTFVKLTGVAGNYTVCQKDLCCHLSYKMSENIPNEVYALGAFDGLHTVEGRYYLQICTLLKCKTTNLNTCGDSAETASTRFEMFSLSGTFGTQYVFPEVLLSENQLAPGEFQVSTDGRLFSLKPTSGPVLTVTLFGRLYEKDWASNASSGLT
# Experimental: The test compounds are dissolved in 100% DMSO at a concentration of 10 mM and in a first step diluted in DMSO to a concentration of 5 mM, followed by serial dilution steps in 100% DMSO. Dilution factor and number of dilution steps may vary according to needs. Typically 8 different concentrations by 1:5 dilutions are prepared, a further intermediate dilutions of the substances is carried out with assay buffer resulting in 1% final DMSO concentration in the assay.
# 0.1 nM of FLAG-tagged Vanin-1 (AA 22-493, T26I, produced internally) and test compounds are incubated at room temperature for 20 minutes in assay buffer (1 mM DTT, 0.0025% Brij-35, 50 mM HEPES, pH7.5). D-Pantethine (Sigma, Cat #P2125-5G) in assay buffer is added (final concentration 3 μM) and incubated for additional 30 minutes at room temperature. Total assay volume typically is 40 μl but might be adjusted according to needs. Reaction is stopped by adding equal volume of stop solution as the reaction mixture to reach 100 nM HD-pantothenic acid (as an internal standard) and 1% TFA. Assay plates are centrifuged for 2 minutes and the formation of pantothenic acid is detected by RapidFire Mass Spectrometry (mobile phase A: 0.1% formic acid and 0.01% trifluoroacetic acid in water; mobile phase B: 47.5% acetonitrile, 47.5% methanol, 0.1% formic acid and 0.01% trifluoroacetic acid in water) using a C18, 12 μL cartridge (Agilent Cat #G9205A).
# The values given in Table I result from measurements of one or more samples. In case of multiple measurements the geometric mean values are given.
# [2] = tested on: Pantetheinase (vanin); test: Human Whole Blood assay; format: cell-based; settings: pantethine substrate, pantothenic acid formation by RapidFire MS, read-out: HWB IC50
# Experimental: Human Whole Blood assay: Pantetheinase (vanin) converts panteheine into pantothenic acid and cysteamine. Accordingly, in the described protocol vanin activity is quantified by formation of pantothenic acid after pantetheine supplementation via pantethine. The assay is applicable to identify vanin inhibitors. Compound stocks are dissolved in DMSO at 10 mM. Further dilutions are performed in RPMI 1640 medium (Gibco, #A-10491-01) and final concentrations in the assay are 0.032 nM-500 nM.
# Human blood is drawn into a blood bag (1% heparin, 50 I.E./mL). Blood is aliquoted into cavities of 96-deep-well plates at 290 μL and mixed with 10 μL compound solution or vehicle (30 sec at 1400 rpm on a shaker). Equilibration follows at room temperature, 250 rpm and for 30 min. The assay is starts by adding 10 μL of substrate solution (20 μM pantethine in 1 mM DTT, 0.0025% Brij-35, 50 mM HEPES, pH7.5) to each well, except for some blank wells which receive […] substrate buffer (1 mM DTT, 0.0025% Brij-35, 50 mM HEPES, pH7.5) only. Samples are thoroughly shaken (30 sec, 1400 rpm) and reaction is allowed to take place at room temperature, 250 rpm and for 5 min. The reaction is stopped by addition of a vanin tool inhibitor in excess (BI-1 total conc. 10 μM). Centrifugation of the plate follows at 4° C., 665 G for 10 min. Then the blood plasma samples (100 μL) are transferred into another 96-deep-well plate and proteins are precipitated (5 min on ice) by adding 100 μL of ice cold precipitation solution (1 μM labelled pantothenic acid (di-β-alanine-13C6,15N2 calcium salt, Sigma, #705837) in acetonitrile). Afterwards the plate is centrifuged (4° C., 3220 G, 10 min) and supernatants (50 μL) are collected into another 96-deep-well plate and mixed (10 sec, 1400 rpm) with 150 μL ice cold formic acid (0.1%, Carl Roth GmbH+Co.KG, #CP03.1). The formation of pantothenic acid is detected by RapidFire Mass Spectrometry. A TripleQuad 6500+ (ABSciex, Germany) is equipped with an LC-1290 system, a RapidFire autosampler (Agilent, Germany) and a C18 cartridge Type C 12 μL (Agilent Cat #G9526-80000). Mobile phase A is consisting of 0.09% formic acid and 0.01% trifluoroacetic acid in water and mobile phase B of 0.09% formic acid and 0.01% trifluoroacetic acid in acetonitrile/methanol/water=47.5/47.5/5.
IC50 [1] [nM],IC50 [2] [nM],SMILES
0.08,0.85,CC1(C#N)CCN(C(=O)c2ccc(NC(C)(C)c3cccnc3)nc2)C1 (stereo not drawn) [Example 8.3]
0.21,1.52,Cc1ncccc1CNc1ccc(C(=O)N2CC[C@H](N(C)C(=O)C3CC3)C2)cn1 [Example 1.15]
0.16,3.29,CC(=O)N(C)[C@H]1CCN(C(=O)c2ccc(NC(C)(C)c3cccnc3)nc2)C1 [Example 8.7]
0.44,2.63,CN(C(=O)C1(C)CCC1)[C@H]1CCN(C(=O)c2ccc(NCc3ccc(N)nc3)nc2)C1 [Example 1.31]
0.91,7.03,CN(C)c1ccc(CNc2ccc(C(=O)N3CC[C@H](N(C)C(=O)C4CC4)C3)cn2)cn1 [Example 1.44]
0.27,4.23,CC(=O)N(C)[C@H]1CCN(C(=O)c2ccc(N[C@@H](C)c3ccc(Cl)cc3)nc2)C1 [Example 9.4]
0.24,2.51,COc1ccncc1CNc1ccc(C(=O)N2CC[C@H](N(C)C(=O)C3(C)CCC3)C2)cn1 [Example 1.22]
0.29,1.98,CN(C(=O)C1(C)CCC1)[C@H]1CCN(C(=O)c2ccc(NC3CCc4[nH]ncc43)nc2)C1 (stereo partly drawn) [Example 1.26]
0.24,1.6,CC1(C#N)CCN(C(=O)c2ccc(NCc3cccnc3)nc2)C1 (stereo not drawn) [Example 3.3]
0.17,4.28,CC(=O)N(C)[C@H]1CCN(C(=O)c2ccc(N[C@@H](C)c3cccc(C(F)(F)F)c3)nc2)C1 [Example 9.3]
0.19,1.94,C[C@H](Nc1ccc(C(=O)N2CCC(C)(C#N)C2)cn1)c1ccccc1 (stereo partly drawn) [Example 3.2]
0.09,2.59,"CC(=O)N(C)[C@H]1CCN(C(=O)c2ccc(NC(C)c3cccnc3)nc2)C1 (single isomer, unassigned) [Example 6.1.A]"
0.27,1.44,CN(C(=O)C1CC1)[C@H]1CCN(C(=O)c2ccc(NCc3ccc(N)nc3)nc2)C1 [Example 1.24]
0.16,6.13,CC(=O)N(C)[C@H]1CCN(C(=O)c2ccc(N[C@@H](C)c3cccc(C#N)c3)nc2)C1 [Example 1.12]
0.06,3.57,"CN(C(=O)C1CC1)[C@H]1CCN(C(=O)c2ccc(NC(C)(C)c3ccccc3)nc2)C1 [Example 2.1, N-Methyl-N-[(3S)-1-{6-[(2-phenylpropan-2-yl)amino]pyridine-3-carbonyl}pyrrolidin-3-yl]cyclopropanecarboxamide]"
0.97,5.93,COc1ccc(CNc2ccc(C(=O)N3CC[C@H](N(C)C(=O)C4CC4)C3)cn2)cn1 [Example 1.47]
0.41,10.4,O=C(c1ccc(NCc2ccc(Cl)cc2)nc1)N1CC[C@H](N2CCOC2=O)C1 [Example 8.12]
0.23,4.74,CC(=O)N(C)[C@H]1CCN(C(=O)c2ccc(NC3(c4ccc(C(F)(F)F)nc4)CC3)nc2)C1 [Example 1.20]

# Source: patent US12240828B2, “Heteroaromatic compounds as vanin inhibitors” (Boehringer Ingelheim International GmbH, priority 2018, dated 2025)
